This is an account of results in patent EP2423217A1, “Peptide and protein affinity tag from mistic protein” (Forschungsverbund Berlin E.V., priority 2010, dated 2012).

For orientation: solubility means the dissolved amount per volume that the medium holds. Low values mean a poorly soluble substance, high ones a readily soluble substance.

Where no end group is shown, it is not given here.

Data set [1] concerns the target T1, MB peptide (Bacillus subtilis, UniProt Q5BU39). As to the kind of experiment: Temperature dependence of MB peptide tetramerization. It counts as physicochemical. Set-up: made in house. As for the experimental part:
The tetramerization of MB peptide is however dependent on temperature and the salt concentration of the buffer. In general, the proportion of MB peptide forming a tetramer is reduced with increasing temperature. At approximately 70°C, only monomers of the MB peptide are present. As the salt concentration increases, the tetramerisation increases accordingly at neutral pH values.

The next data set is described as follows: physchem. The conditions noted are these: aqueous buffer.
Data set [2] deals with T1, MB peptide. The experiment in a line: CD spectroscopy of MB oligomerization at different pH values. It counts as physicochemical. Set-up: made in house. The conditions noted are these: for ratio 208 nm / 222 nm: 154 mM NaF; for oligomer state: AUC and CD spectroscopy. An excerpt: The MB monomer is mostly unfolded (~70% random coil), whereby the MB tetramer forms an α-helix. […] This pH sensitive switchability is reversible and occurs completely and suddenly from pH 6.0 to 5.4.
• Figure 1: Molecular model of the secondary protein structure of the helical MB peptide. Hydrophobicity of the peptide MB is also indicated by differential after folding into an ideal helix. Hydrophilic groups are indicated with arrows from above, hydrophobic groups from below. (A) The hydrophobic areas in which the binding takes place. (B) View of the backside. • Figure 2: CD spectroscopy of MB at different pH values. Circular ellipticity of 50 µM MB at 208 nm or 222 nm was measured against buffer pH in 10 mM citrate or 10 mM phosphate buffer with 154 mM NaF at 20°C. Citrate buffer was applied for the pH range from pH 6.5 to 4 and phosphate buffer for the pH ranges 1.5 to 4 and 6.5 to 10. MB structure was uninfluenced by buffer type, because CD spectra in citrate buffer were equal to spectra in phosphate buffer in the overlapping pH regions. The wavelengths 208 nm and 222 nm are characteristic for α-helices. […] (A) The snapshots of the same membrane repeatedly hybridised (left) and regenerated (right) show similar results after each of the six repetitions. […] (B) Plot of the normalized median intensities of each spot against number of incubations. • Figure 4: Mutation analysis of the amino acids important in oligomerization. […] The amino acids numeration is shown as small numbers above the wild type letters, the wt sequence can be found in the middle (black frame). Letters listed vertically above the wt sequence intensify the interactions, letters below weaken or abolish. The bigger the letter size the stronger the influence, linear to the distance of the intensity to the wt mean intensity in times of SD, starting with a minimum of ±2 SD. • Figure 5: Summary of the single-point mutation and length analysis of the MB oligomerization (A) Single-point mutations substantially (p<0.05) influencing the oligomerization were grouped and are represented by bars above or below the wild type sequence (black frame).The amino acids numeration is shown as small numbers above the wild type letters. Bars above the wild type sequence signify an enhanced oligomerization and below a weakened or abolished. The bar size reflects the strength of the mutation's influences on the oligomerization. […] Amino acid positions which were especially mutation-susceptible are marked by a + or -. (B) MB was systematically truncated with a step size of two amino acids from either one of the termini or simultaneously both termini. The shortest still with TAMRA-MB oligomerizing truncates are shown in black frames.
In order to assess the oligomerization properties of MB peptide circular dichroism spectroscopy (CD spectroscopy) was carried out according to standard procedures. The MB tetramerization was triggered by acidic pH values while remaining unchanged in basic conditions. Starting from basic pH 10 down to slightly acidic pH 6 the structure of MB was invariable at constant concentrations. Between pH 6 to 5.4 a rapid and tremendous increase in helicity occurred. Below pH 5.4 the pronounced α-helical MB structure remained constant down to pH 1.5 (see Fig. 2).

For data set [3], the target named is T1, MB peptide. As to the kind of experiment: SPOT hybridization with TAMRA-MB: regeneration and reversibility. It counts as binding. On the set-up: made in house; host or cells: chemical SPOT synthesis on membrane (MultiPep synthesizer). Particulars: 25 µM MB in 114 mM phosphate buffer with 50 mM NaF at pH 2.8, over night at 4°C; eight spots. As for the experimental part:
A SPOT-analysis was carried out in order to assess oligomerization of the MB peptide and its ability to tether molecules. This approach is analogous to that of affinity chromatography, in that a solid phase-bound synthesized MB peptide is used to bind and isolate a molecule of interest that is tagged with the protein affinity tag of the present invention.
The nitrocellulose membrane which contained the MB peptide was incubated, and thus hybridized, with TAMRA-MB (MB peptide to which the TAMRA colouring agent has been covalently attached). If the spots remained coloured after washing an oligomerisation was judged to have taken place. Solid-phase bound MB peptide was synthesized directly on the membranes. Whatman 50 filter paper (Whatman GmbH, Dassel, Germany) was used for membrane-bound peptide synthesis. SPOT positions with a diameter of 3 mm were defined by treating isolated locations on the membrane with coupling reagents. The membrane bound peptides were assembled by the SPOT synthesizer MultiPep (Intavis Bioanalytical Instruments AG, Köln, Germany) according to standard protocols.
Spotted membranes were washed and blocked according to standard protocols before hybridization. After rinsing once with incubation buffer membranes were hybridized with TAMRA-MB over night at 4 °C under agitation. Incubation results were documented by scanning the membranes with a HP scanjet at 600 dpi. […]

Consider “MKVTSEEKEQLSTAIDRMNEGLDAFIQLYNES [MB peptide]”, for which, on MB peptide [1], the “temperature at which only monomers are present” value was “approximately 70 °C”. Moreover, in the data set “physchem”, the solubility was ≥ 2200 µM. The “pH range of switch from monomer to α-helical tetramer (increase in helicity)” value at MB peptide [2] (50 µM MB, 10 mM citrate or 10 mM phosphate buffer with 154 mM NaF, 20°C) was in the range of 6 to 5.4. In addition, the random coil at MB peptide [2] (MB monomer) was ~ 70%. For the same sequence, the “ratio 208 nm / 222 nm” value on MB peptide [2] (pH<5.4, 50 µM MB, 20°C) was determined as 0.93; on MB peptide [2] (pH>6, 50 µM MB, 20°C), 2.18. Moreover, the oligomer state entry is listed as “converts completely into tetramer” at MB peptide [2] (same concentration (50 µM), pH <5.4) and “remains purely as monomer” on MB peptide [2] (up to 50 µM in phosphate buffer at pH 6.5). Also, the “consecutive incubations and regenerations with reproducible oligomerization” value at MB peptide [3] is listed as “six”.
